Laboratory results reported in patent US20120077779A1, “Inhibitors of Fibroblast Activation Protein Alpha” (Trustees of Tufts College, priority 2005, published 2012).

What follows are compounds tested against DPP IV (Homo sapiens, UniProt P27487) (assay: DPP IV inhibition (Table 1)). Conditions: pH 8.0.
Format: biochemical

Chain of DPP IV (P27487 whole entry, species assumed): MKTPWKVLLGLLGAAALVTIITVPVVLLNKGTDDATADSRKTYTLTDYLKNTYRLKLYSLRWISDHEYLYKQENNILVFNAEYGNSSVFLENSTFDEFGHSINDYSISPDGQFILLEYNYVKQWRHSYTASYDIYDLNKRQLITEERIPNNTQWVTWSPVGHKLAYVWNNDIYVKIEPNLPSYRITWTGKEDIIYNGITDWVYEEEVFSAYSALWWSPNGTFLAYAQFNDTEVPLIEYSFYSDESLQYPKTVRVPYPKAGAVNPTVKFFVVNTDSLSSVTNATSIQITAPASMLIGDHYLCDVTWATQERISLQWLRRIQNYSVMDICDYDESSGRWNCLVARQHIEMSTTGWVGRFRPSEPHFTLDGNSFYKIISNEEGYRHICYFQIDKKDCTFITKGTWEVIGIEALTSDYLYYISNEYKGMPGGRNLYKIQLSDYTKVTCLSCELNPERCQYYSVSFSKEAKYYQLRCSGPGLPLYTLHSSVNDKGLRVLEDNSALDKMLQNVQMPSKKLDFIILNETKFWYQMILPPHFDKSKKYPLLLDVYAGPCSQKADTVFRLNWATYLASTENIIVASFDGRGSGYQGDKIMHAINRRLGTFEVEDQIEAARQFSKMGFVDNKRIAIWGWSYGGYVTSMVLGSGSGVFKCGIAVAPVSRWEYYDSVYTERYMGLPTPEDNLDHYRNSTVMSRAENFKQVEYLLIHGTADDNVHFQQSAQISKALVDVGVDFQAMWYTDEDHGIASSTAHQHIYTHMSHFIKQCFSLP

SMILES | IC50
NCC(=O)N1CCC[C@H]1B(O)O [Compound 6] | 6.9 µM
CC(C)NCC(=O)N1CCCC1B(O)O (stereo not shown) [Compound 15] | 0.9 µM
CCNCC(=O)N1CCCC1B(O)O (stereo not shown) [Compound 13] | 46 µM
CNCC(=O)N1CCCC1B(O)O (stereo not shown) [Compound 12] | 560 µM

What follows are compounds tested against T1, FAP (Homo sapiens, UniProt Q12884) (assay: Enzymatic activity of purified FAP, chromogenic substrate H-Ala-Pro-pNA). Conditions: pH 7.4, 25° C., 10 min pre-incubation with enzyme.
T1 sequence (Q12884 1-760): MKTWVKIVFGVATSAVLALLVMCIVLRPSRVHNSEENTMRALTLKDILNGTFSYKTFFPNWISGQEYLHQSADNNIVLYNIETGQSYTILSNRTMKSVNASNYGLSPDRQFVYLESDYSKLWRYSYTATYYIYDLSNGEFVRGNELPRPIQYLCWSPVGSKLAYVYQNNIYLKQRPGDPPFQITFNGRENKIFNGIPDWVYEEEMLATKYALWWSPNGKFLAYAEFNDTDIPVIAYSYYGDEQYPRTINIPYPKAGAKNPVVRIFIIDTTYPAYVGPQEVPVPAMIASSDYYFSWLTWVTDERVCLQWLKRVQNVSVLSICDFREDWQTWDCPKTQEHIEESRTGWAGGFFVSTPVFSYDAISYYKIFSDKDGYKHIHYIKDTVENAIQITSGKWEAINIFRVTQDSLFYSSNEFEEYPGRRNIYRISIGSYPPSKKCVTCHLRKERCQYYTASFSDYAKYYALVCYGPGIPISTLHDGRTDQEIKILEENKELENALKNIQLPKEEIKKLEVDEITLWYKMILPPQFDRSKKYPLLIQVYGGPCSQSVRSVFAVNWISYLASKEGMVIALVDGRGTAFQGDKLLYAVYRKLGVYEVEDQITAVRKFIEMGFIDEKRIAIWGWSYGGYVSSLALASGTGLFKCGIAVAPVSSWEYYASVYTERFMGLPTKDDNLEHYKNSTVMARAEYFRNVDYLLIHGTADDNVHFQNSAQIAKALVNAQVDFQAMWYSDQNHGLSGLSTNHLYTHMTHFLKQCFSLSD
Format: biochemical
Procedure: The enzymatic activity of purified FAP was measured at 25° C. on a Molecular Devices SPECTRAmax 340PC384 microtiter plate reader by monitoring the absorbance of H-Ala-Pro-pNA (Bachem) as the chromogenic substrate at 410 nm. […] Assays and their corresponding measurements were performed in duplicate. […] Inhibitor stock solutions (1 mM) were prepared in HCl solution (pH 2.0), and stored at −20° C. Stock solutions were diluted with 20 mM TRIS-HCl, KCl (20 mM) buffer at pH 7.4 immediately preceding the experiment according to the protocol.

SMILES | IC50
CC(C)NCC(=O)N1CCCC1B(O)O (stereo not shown) [Compound 15] | 0.99 µM
N#C[C@@H]1CCCN1C(=O)CNC(=O)c1ccccc1 [Compound 30] | 2.2 µM
CC[C@H](NC(=O)CNC(=O)c1cccc2ccccc12)B(O)O [Compound 34] | 9 µM
CC(C)[C@H](NC(=O)c1ccccc1)C(=O)N1CCC[C@H]1B(O)O [Compound 32] | 30 µM
C[C@H](NC(=O)CNC(=O)c1cccc2ccccc12)B(O)O [Compound 33] | 8.2 µM
O=C(NCC(=O)N1CCSC1)c1ccccc1 [Compound 31] | 14 µM

Same assay, conditions: pH 7.4, 25° C., 10 min pre-incubation; result in words

SMILES | IC50 FAP (pH 7.4)
CC[C@H](NC(=O)[C@@H](NC(C)=O)C(C)C)B(O)O [Compound 36] | no inhib.
CC(=O)N[C@H](C(=O)N[C@@H](C)B(O)O)C(C)C [Compound 35] | no inhib.
CNCC(=O)N1CCCC1B(O)O (stereo not shown) [Compound 12] | no inhib.
